The test system of one test is Aspergillus niger. Put plainly: Aspergillus studies, MIC in microtitre plates. Particulars: formulation buffer only, read-out: MIC to Amphotericin B. Format: cell-based.
The subject of another test is Aspergillus flavus. The experiment in a line: Aspergillus studies, MIC in microtitre plates. The test is classed as cell-based. Particulars: formulation buffer only, read-out: MIC to Amphotericin B.
The test system of test [1] is C. parapsilosis (NCPF #3104). Put plainly: Broth microdilution test (MIC, colony counts). The test is classed as cell-based. As to conditions: for MIC: Lodderomyces parapsilosis, NCPF3104, no antibody; for Colony counts: no antibody. The method, then:
(§1) Non-Aspergillus yeast strains used (Table 1) were plated onto Sabouraud's dextrose agar (Oxoid, Basingstoke, UK) and incubated at 37° C. for 24 hours. The strains were identified with the API 20C system (BioMerieux, Marcy L'Etoile, France). If needed, microscopical examinations of morphology on cornmeal agar (Oxoid) was used to confirm the identity.
(§2) For non-Aspergillus strains, suspensions were prepared from individual colonies (diameter≧1 mm) in 5 ml of sterile 0.85% saline to a density of […] as established by counting on a haemocytometer grid. For Aspergillus strains, see below.
(§3) RPMI broth was prepared from RPMI 1640 broth medium (Sigma R7880) supplemented with 0.3 g of glutamine per litre, buffered with 34.6 g of morpholine propanesulfonic acid (MOPS) per litre and adjusted to ph 7.0.
(§4) Twofold dilutions ([…] for amphotericin B and 400 to 0.4 mg/ml for fluconazole) were prepared in RPMI broth starting from the two stock solutions. A 100 μl suspension of the inoculum diluted 1 in 10 (equivalent to 1×10^3 cfu) was added to the microtiter plates. To this was added 50 μl of the antifungal and then 50 μl of the antibody. Antibody was either neat (0.4 mg/mil), or diluted to 1/10or 1/100. When antibody was absent, the 50 μl volume was made up by RPMI. The total volume in each well was 200 μl. Final concentrations of antibody in the experiments were: 100 μg/ml (“neat”), 10 μg/ml (“ 1/10antibody”) or 1 μg/ml (“ 1/100antibody”).
(§5) Plates were incubated at 37° C. overnight and the minimum inhibitory concentration (MIC) defined by the lower concentration inhibiting growth.
(§6) Colony counts were determined for the wells where there was a visual reduction in yeast growth. Results were represented as colony forming units per ml of broth (cfu/ml).

Test [2] concerns Torulopsis glabrata (NCPF #3240). Put plainly: Broth microdilution test (MIC, colony counts). Format: cell-based. Particulars: T. glabrata; for MIC: Nakaseomyces glabratus, NCPF3240. The method, then: as §1, §2, §3, §4, §5, §6
Test [3] concerns C. tropicalis (NCPF #3111). Put plainly: Broth microdilution test (MIC, colony counts). Format: cell-based. As to conditions: for MIC: Candida tropicalis, NCPF3111, no antibody. The method, then:
as §1, §2, §3, §4, §5, §6

Test [4] deals with Candida albicans (outbreak). The experiment in a line: Broth microdilution test (MIC, colony counts). The test is classed as cell-based. The method, then: as §1, §2, §3, §4, §5, §6
(Dilution methods test growth across graded concentrations, often in twofold steps.)

The test system of another test is C. krusei (FA/157). The experiment in a line: Broth microdilution test (MIC, colony counts). Format: cell-based. As to conditions: for MIC: Pichia kudriavzevii; for MIC / Colony counts: no antibody. The method, then:
as §1, §2, §3, §4, §5, §6

The test system of test [5] is C. albicans (Fluconazole resistant). Put plainly: Broth microdilution test (MIC, colony counts). The test is classed as cell-based, Candida albicans. The method, then: as §1, §2, §3
Twofold dilutions ([…] for amphotericin B and 400 to 0.4 mg/ml for fluconazole) were prepared in RPMI broth starting from the two stock solutions. A 100 μl suspension of the inoculum diluted 1 in 10 (equivalent to 1×10^3 cfu) was added to the microtiter plates. To this was added 50 μl of the antifungal and then 50 μl of the antibody. Antibody was either neat (0.4 mg/mil), or diluted to 1/10or 1/100. When antibody was absent, the 50 μl volume was made up by RPMI. […]
Colony counts were determined for the wells where there was a visual reduction in yeast growth. […]

In test [6] the test system is C. albicans outbreak strain. The experiment in a line: Animal synergy: yeast counts in tissues of infected mice. The test is classed as in vivo, CD1 mice. Particulars: Group 1: amphotericin B 0.6 mg/kg only, 48 hours.
Method: Thirty CD1 mice (each weighing about 25 g) were injected with 100 μl of C. albicans outbreak strain (equivalent to 1.5×10^7 cfu) and after 2 hours the mice were split into three groups and injected with:
(A) Group 1—100 μl solution of 10 mM ammonium acetate (AAT; pH 9), followed by 100 μl amphotericin B equivalent to 0.6 mg/kg in a 5% (w/v) glucose solution;
(B) Group 2—100 μl solution of 10 mM AAT (pH 9) solution containing 500 μg anti-hsp90 antibody, followed by 100 μl amphotericin B equivalent to 0.6 mg/kg in a 5% (w/v) glucose solution; and
(C) Group 3—100 μl solution of 10 mM AAT (pH 9) containing 50 μg anti-hsp90 antibody, followed by 100 μl amphotericin B equivalent to 0.6 mg/kg in a 5% (w/v) glucose solution.
The animals were culled after 48 hours and yeast counts on Sabouraud's plates of liver, spleen and kidney tissue performed.
Test [7] deals with Aspergillus fumigatus (NCPF #2109). Put plainly: Aspergillus studies, MIC in microtitre plates. Format: cell-based. Particulars: NCPF2109, formulation buffer only, read-out: MIC to Amphotericin B.
Method: (§7) Isolates of Aspergillus fumigatus, Aspergillus flavus and Aspergillus niger were prepared in RPMI 1640 medium. The suspensions were prepared to give a final inoculum of 2×10^4 conidia per ml and these were dispensed in 100 μl aliquots into flat-bottomed microtitre plates. A double dilution series of Amphotericin B ranging from 250 μg/nil to 0.75 μg/ml was prepared and dispensed to the appropriate wells. Mycograb was added to each of the wells at a final concentration of 100 μg/ml in formulation buffer. A control series was also prepared for each isolate which contained formulation buffer only.
Setting [8] is: read-out: MIC to amphotericin B.
The mark [9] stands for this setting: antibody 0.313 μg/ml, no antifungal agent.

Results on three molecules are retold here after US20030180285A1, “Treatment of fungal infections with polyene or beta glucan synthase inhibitor anti-fungals combined with anti hsp90 antibodies” (priority 2000, published 2003).

Values after ≈ are worked out from the molar mass of the structure shown. Like-named read-outs stand apart in the source and are kept apart here.

Method for Aspergillus flavus: as §7
Method for Aspergillus niger: as §7

Regarding `C[C@@H]1[C@H](O)[C@@H](C)/C=C/C=C/C=C/C=C/C=C/C=C/C=C/[C@H](O[C@@H]2O[C@H](C)[C@@H](O)[C@H](N)[C@@H]2O)C[C@@H]2O[C@](O)(C[C@@H](O)C[C@@H](O)[C@H](O)CC[C@@H](O)C[C@@H](O)CC(=O)O[C@H]1C)C[C@H](O)[C@H]2C(=O)O` [Amphotericin B, amphotericin B], the MIC – broadly, the lowest concentration found to suppress growth – with Aspergillus niger turned out to be 2.5 µg/mL (≈ 2.71 µM); in the test on Aspergillus flavus it was 2.5 µg/mL (≈ 2.71 µM); in test [1] (setting [8]) it was 0.625 µg/mL (≈ 0.676 µM); in test [2] (no antibody, read-out: MIC to amphotericin B), 0.039 µg/mL (≈ 0.0422 µM); in test [3] (setting [8]) it was 0.078 µg/mL (≈ 0.0844 µM); in test [4] (Candida albicans, C. albicans (outbreak), no antibody, read-out: MIC to amphotericin B), 0.156 µg/mL (≈ 0.169 µM). For the same molecule, the MIC turned out to be 0.625 µg/mL (≈ 0.676 µM) with C. krusei (FA/157) (setting [8]); 0.312 µg/mL (≈ 0.338 µM) in test [5] (Candida albicans, C. albicans fluconazole resistant, no antibody, read-out: MIC to amphotericin B); 2.5 µg/mL (≈ 2.71 µM) in test [7]. Also, the Colony counts is recorded as 3 × 10^6 cfu/ml in test [1] (amphotericin B 0.313 μg/ml); 6.3 × 10^3 cfu/ml in test [1] (amphotericin B 0.626 μg/ml); 1.1 × 10^7 cfu/ml in [2] (amphotericin B 0.009 μg/ml, no antibody). Moreover, the “Colonies of C. albicans in tissue” value was 6.80 ± 0.916 cfu/ml, in log10 in test [6] (Kidney); 4.26 ± 1.42 cfu/ml, in log10 in test [6] (Liver); 4.18 ± 1.18 cfu/ml, in log10 in [6] (Spleen).

With `OC(Cn1cncn1)(Cn1cncn1)c1ccc(F)cc1F` [Fluconazole, fluconazole], the minimum inhibitory concentration (MIC) in [1] (read-out: MIC to fluconazole) is 6.25 µg/mL (≈ 20.4 µM); in [2] (no antibody, read-out: MIC to fluconazole), 1.56 µg/mL (≈ 5.09 µM); in test [3] (read-out: MIC to fluconazole), 3.12 µg/mL (≈ 10.2 µM); in the test with C. krusei (FA/157) (read-out: MIC to fluconazole) it was 100 µg/mL (≈ 327 µM). In addition, the Colony counts in [1] (fluconazole 3.13 μg/ml) was 2.6 × 10^6 cfu/ml; in test [3] (fluconazole 0.09 μg/ml, no antibody), 5 × 10^5 cfu/ml; in [4] (C. albicans outbreak strain, fluconazole 0.09 μg/ml, no antibody), 3.6 × 10^5 cfu/ml; in the test with C. krusei (FA/157) (fluconazole 25 μg/ml), 3.2 × 10^7 cfu/ml; with C. krusei (FA/157) (fluconazole 50 μg/ml), 1.6 × 10^7 cfu/ml.

B1: antibody: antibody of SEQ ID NO: 2 (heavy, light and spacer domains) recognising Candida albicans hsp90 epitope SEQ ID NO: 1, expressed in E. coli (protein)
scFv: HMAEVQLVESGAEVKKPGESLRISCKGSGCIISSYWISWVRQMPGKGLEWMGKIDPGDSYINYSPSFQGHVTISADKSINTAYLQWNSLKASDTAMYYCARGGRDFGDSFDYWGQGTLVTVSSGGGGSGGGGSGGGGSDVVMTQSPSFLSAFVGDRITITCRASSGISRYLAWYQQAPGKAPKLLIYAASTLQTGVPSRFSGSGSGTEFTLTINSLQPEDFATYYCQHLNSYPLTFGGGTKVDIKRAA
In the case of B1, the “Effect of antibody on its own against yeast growth” value in [1] (setting [9]) is reported as 2.6 × 10^4 cfu/ml; in test [2] (setting [9]), 1.2 × 10^7 cfu/ml; in [3] (setting [9]) it was 6.0 × 10^5 cfu/ml; in [4] (C. albicans (outbreak), antibody 0.313 μg/ml, no antifungal agent), 5.6 × 10^6 cfu/ml; in the test with C. krusei (FA/157) (setting [9]), 1.6 × 10^6 cfu/ml; in test [5] (C. albicans (fluconazole resistant), antibody 0.313 μg/ml, no antifungal agent), 6 × 10^6 cfu/ml.
